Measured values as given in patent US9920089B2, “Process for producing a solid form of abiraterone acetate” (ZACH SYSTEM, priority 2013, dated 2018).

Tests used:
[1] = Particle size distribution by laser diffraction, dry powder method (Malvern Mastersizer 2000); assay type: physicochemical; details: milled dried product after spherical agglomeration
Procedure: PSD was determined by laser diffraction-dry powder method with a Malvern Mastersizer 2000 device.

[2] = target: T1, human cytochrome P45017α (Homo sapiens, UniProt P05093); details: qualitative statement; cited from earlier work
T1 sequence (P05093 1-508): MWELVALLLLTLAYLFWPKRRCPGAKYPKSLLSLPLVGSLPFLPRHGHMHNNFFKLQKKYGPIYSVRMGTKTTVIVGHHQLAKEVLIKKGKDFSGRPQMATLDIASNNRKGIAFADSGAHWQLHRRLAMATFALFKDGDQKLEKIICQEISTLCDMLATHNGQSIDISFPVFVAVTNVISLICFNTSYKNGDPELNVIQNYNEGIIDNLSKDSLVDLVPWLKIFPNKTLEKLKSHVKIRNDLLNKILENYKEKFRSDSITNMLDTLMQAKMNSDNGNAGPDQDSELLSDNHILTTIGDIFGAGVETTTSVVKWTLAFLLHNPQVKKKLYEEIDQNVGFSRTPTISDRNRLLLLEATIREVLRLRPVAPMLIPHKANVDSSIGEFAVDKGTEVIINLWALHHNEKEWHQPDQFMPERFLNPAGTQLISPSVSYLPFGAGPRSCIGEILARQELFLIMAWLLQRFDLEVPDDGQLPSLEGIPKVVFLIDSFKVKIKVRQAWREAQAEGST

[3] = cited from earlier work

Row | Measured Particle Size Distribution D(0.5) [1] [μm] | Compound | further results
1 | 4.9 | CC(=O)O[C@H]1CC[C@@]2(C)C(=CC[C@@H]3[C@@H]2CC[C@]2(C)C(c4cccnc4)=CC[C@@H]32)C1 [Example 1, abiraterone acetate] | 
2 |  | C[C@]12CC[C@H](O)CC1=CC[C@@H]1[C@@H]2CC[C@]2(C)C(c3cccnc3)=CC[C@@H]12 [Abiraterone, 17-(3-pyridyl)-androsta-5,16-dien-3β-ol] | Inhibition of human cytochrome P45017α [2]: potent inhibitor
3 | 6.5 | CC(=O)O[C@H]1CC[C@@]2(C)C(=CC[C@@H]3[C@@H]2CC[C@]2(C)C(c4cccnc4)=CC[C@@H]32)C1 [Example 4, abiraterone acetate] | 
4 | 10.7 | CC(=O)O[C@H]1CC[C@@]2(C)C(=CC[C@@H]3[C@@H]2CC[C@]2(C)C(c4cccnc4)=CC[C@@H]32)C1 [Example 2, abiraterone acetate] | 
5 |  | CC(=O)O[C@H]1CC[C@@]2(C)C(=CC[C@@H]3[C@@H]2CC[C@]2(C)C(c4cccnc4)=CC[C@@H]32)C1 [Abiraterone acetate, (3β)-17-(3-pyridinyl)-androsta-5,16-dien-3-yl acetate] | Solubility in 0.1N HCl solution ([3]; 0.1N HCl solution): very slightly soluble; Solubility in aqueous media ([3]; aqueous media, pH range 2.0 to 12.9): practically insoluble; Solubility in organic solvents ([3]; organic solvents): soluble to freely soluble
6 | 3.7 | CC(=O)O[C@H]1CC[C@@]2(C)C(=CC[C@@H]3[C@@H]2CC[C@]2(C)C(c4cccnc4)=CC[C@@H]32)C1 [Example 3, abiraterone acetate] | 
